Results on 21 compounds are retold here after ChEMBL document CHEMBL2401677, “2-Aminothiazole based P2Y(1) antagonists as novel antiplatelet agents” (Bioorg Med Chem Lett, 2013).

The structures appear in SMILES notation.

By inhibition is commonly meant the drop in the measured response relative to a control, in per cent. Broadly, the Ki is the equilibrium dissociation constant of an inhibitor or competing ligand from its target. In general, IC50 refers to the point on the concentration scale where inhibition reaches its midpoint. One may read the bioavailability as dose-corrected exposure relative to a reference, in per cent. Read a low bioavailability as poor availability. As usually defined, the clearance is the rate of elimination divided by the concentration. A low value points to inefficient removal.

Data set [1] can be described thus: Antiplatelet activity in human platelet rich plasma assessed as inhibition of ADP-induced platelet aggregation at 10 uM relative to control. The format is functional.
A further data set concerns the target P2Y purinoceptor 1 (Homo sapiens, UniProt P47900). The data set can be described thus: Displacement of [beta-33P]-2MeS-ADP from human P2Y1 receptor expressed in HEK293 cells after 1 hr by scintillation counting analysis. It is filed as cell-based.
Data set [2] can be described thus: Antiplatelet activity in human platelet rich plasma assessed as inhibition of ADP-induced platelet aggregation. It is filed as functional.
Data set [3] is described as follows: Oral bioavailability in rat. As to conditions: in vivo. It is filed as ADME, organism-based.
Data set [4] is described as follows: Protein binding in human serum. It is filed as ADME, cell-free. The settings on record: read-out: PB.
A short description of data set [5]: Clearance in rat at 5 mg/kg, iv. The format is ADME, organism-based. On the set-up: dose 5 mg/kg, route intravenous. As to conditions: in vivo.

Sequence of P2Y purinoceptor 1 (P47900 whole entry): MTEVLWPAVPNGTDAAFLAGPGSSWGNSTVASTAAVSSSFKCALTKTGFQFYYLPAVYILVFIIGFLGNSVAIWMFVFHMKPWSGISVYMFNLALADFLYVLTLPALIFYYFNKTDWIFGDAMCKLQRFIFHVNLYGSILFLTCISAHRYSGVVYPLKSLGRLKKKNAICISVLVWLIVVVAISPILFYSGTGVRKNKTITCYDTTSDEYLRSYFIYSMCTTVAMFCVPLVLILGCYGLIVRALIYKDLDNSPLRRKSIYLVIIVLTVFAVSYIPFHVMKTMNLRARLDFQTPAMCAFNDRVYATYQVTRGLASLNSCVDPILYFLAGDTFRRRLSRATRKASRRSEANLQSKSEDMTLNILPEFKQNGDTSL

In the case of `CC(C)(C)c1ccccc1Oc1ncccc1Nc1ncc(-c2ccccc2)s1`, the inhibition at 10 µM in data set [1] stood at 87%.
At P2Y purinoceptor 1, `CCc1nc(Nc2cccnc2Oc2ccccc2C(C)(C)C)sc1-c1ccccc1` returned a Ki of 0.012 µM. The inhibition at 10 µM in data set [1] was determined as 78%.
On the same counts, the results for `CC(C)(C)c1ccccc1Oc1ncccc1Nc1nc(C(C)(C)C)c(-c2ccccc2)s1` are 0.031 µM and 86%.
For `CC(C)(C)c1ccccc1Oc1ncccc1Nc1nc(C(F)(F)F)c(-c2ccccc2)s1`, the affinity on P2Y purinoceptor 1, expressed as Ki, was 0.007 µM. Also, the inhibition at 10 µM in data set [1] came to 61%. Besides, the IC50 in data set [2] turned out to be 12 µM.
For `CC(C)(C)c1ccccc1Oc1ncccc1Nc1nc(C(C)(C)CC(=O)O)c(-c2ccccc2)s1`, the affinity at P2Y purinoceptor 1 corresponds to a Ki of 0.207 µM. Moreover, the inhibition at 10 µM in data set [1] turned out to be 89%.
Take `CN(C)C(=O)c1nc(Nc2cccnc2Oc2ccccc2C(C)(C)C)sc1-c1ccccc1`: at P2Y purinoceptor 1, the affinity corresponds to a Ki of 0.186 µM. The inhibition at 10 µM in data set [1] was 100%.
Consider `Cc1sc(Nc2cccnc2Oc2ccccc2C(C)(C)C)nc1C(F)(F)F`, for which, on P2Y purinoceptor 1, the affinity corresponds to a Ki of 0.011 µM. In addition, the inhibition at 10 µM in data set [1] came out at 96%.
The corresponding values for `CCOC(=O)c1sc(Nc2cccnc2Oc2ccccc2C(C)(C)C)nc1C(F)(F)F` are 0.005 µM and 50%.
On the same counts, the results for `CC(C)(C)c1ccccc1Oc1ncccc1Nc1nc(C(F)(F)F)c(C#N)s1` are 0.021 µM and 101%.
The corresponding values for `Cc1noc(-c2sc(Nc3cccnc3Oc3ccccc3C(C)(C)C)nc2C(F)(F)F)n1` are 0.006 µM and 56%.
As for `CC(C)(C)c1ccccc1Oc1ncccc1Nc1nc(C(F)(F)F)c(C(N)=O)s1`, the Ki on P2Y purinoceptor 1 was found to be 4.85 µM. This counts as single-digit micromolar.
In turn, `Cc1ccccc1-c1sc(Nc2cccnc2Oc2ccccc2C(C)(C)C)nc1C(F)(F)F` gave a Ki on P2Y purinoceptor 1 of 0.011 µM. In addition, in data set [1], the inhibition at 10 µM came to 54%.
Consider `Cc1ccc(-c2sc(Nc3cccnc3Oc3ccccc3C(C)(C)C)nc2C(F)(F)F)cc1`, for which, at P2Y purinoceptor 1, the affinity corresponds to a Ki of 0.008 µM. For the same compound, the inhibition at 10 µM in data set [1] was determined as 32%.
At P2Y purinoceptor 1, `CC(C)(C)c1ccccc1Oc1ncccc1Nc1nc(C(F)(F)F)c(-c2ccccc2F)s1` returned a Ki of 0.007 µM. Further, in data set [1], the inhibition at 10 µM stood at 41%.
The corresponding values for `COc1cccc(-c2sc(Nc3cccnc3Oc3ccccc3C(C)(C)C)nc2C(F)(F)F)c1` are 0.008 µM and 41%.
Turning to `COc1ccc(-c2sc(Nc3cccnc3Oc3ccccc3C(C)(C)C)nc2C(F)(F)F)cc1`, at P2Y purinoceptor 1, the Ki worked out at 0.008 µM. Also, in data set [1], the inhibition at 10 µM is 30%.
At P2Y purinoceptor 1, `CC(C)(C)c1ccccc1Oc1ncccc1Nc1nc(C(F)(F)F)c(-c2ccc(OC(F)(F)F)cc2)s1` yielded a Ki of 0.012 µM. The inhibition at 10 µM in data set [1] came to 85%.
On the same counts, the results for `CC(C)(C)c1ccccc1Oc1ncccc1Nc1nc(C(F)(F)F)c(-c2ccc(C#N)cc2)s1` are 0.013 µM and 79%.
The compound `CC(C)(C)c1ccccc1Oc1ncccc1Nc1nc(C(F)(F)F)c(-c2ccccc2O)s1` displayed a Ki at P2Y purinoceptor 1 of 0.435 µM. Besides, in data set [1], the inhibition at 10 µM is 99%.
Compound `CC(C)(C)c1ccccc1Oc1ncccc1Nc1nc(C(F)(F)F)c(-c2cccc(O)c2)s1` registered a Ki at P2Y purinoceptor 1 of 0.195 µM. In addition, the inhibition at 10 µM in data set [1] is 98%.
`CN(C)CC(C)(C)COc1cccc(-c2sc(Nc3cccnc3Oc3ccccc3C(C)(C)C)nc2C(F)(F)F)c1` came in with a bioavailability in data set [3] of 27%. The compound also came in with a Ki at P2Y purinoceptor 1 of 0.012 µM. The inhibition at 10 µM in data set [1] was determined as 17%. In data set [4], the fraction unbound amounted to 0.001. The clearance in data set [5] was determined as 0.402 L/h/kg. In addition, in data set [2], the 50% inhibitory concentration (IC50) came to 5.2 µM.
